Assay results taken from PubChem BioAssay AID2060887 (Molecular Pharmacology Branch, DTP, NCI, 2025).

System: 782815-120-R-J1-PDC complex spheroid viability
Assay: Anticancer human tumor 782815-120-R-J1-PDC patient-derived colon adenocarcinoma cell line growth inhibition [RAS]
Conditions: for IC50: curve of first compound; for viability, T/C: stronger effect = lower value
In short: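 Agents were tested in combination matrices in half-log decrements from a top concentration at or near clinical Cmax (10 microM if undetermined). Targets were multi-cell spheroids of tumour lines plus HUVEC and MSC stromal cells.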
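Also: spheroids exposed to compounds for 7 days before reading.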
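For viability, T/C in this document: 100% = DMSO vehicle control viability.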

CC(=O)OC12COC1CC(O)C1(C)C(=O)C(O)C3=C(C)C(OC(=O)C(O)C(NC(=O)OC(C)(C)C)c4ccccc4)CC(O)(C(OC(=O)c4ccccc4)C21)C3(C)C (configuration not stated) + CCn1c(-c2cccnc2C(C)OC)c2c3cc(ccc31)N1CCOC(CC(NC(=O)C(C(C)C)N(C)C(=O)C3(F)CCN(C(=O)C#CC(C)(C)N(C)C)CC3)C(=O)N3CCCC(N3)C(=O)OCC(C)(C)C2)C1
IC50 (second compound 0.000949 µM): < 31.6 nM | IC50 (second compound 0.003 µM): < 31.6 nM | IC50 (second compound 0.00949 µM): < 31.6 nM | IC50 (second compound 0.03 µM): < 31.6 nM | IC50 (second compound 0.0949 µM): < 31.6 nM | IC50 (second compound 0.3 µM): < 31.6 nM | viability, T/C (second compound 0.000949 µM, first compound 0.0316 µM): 31.7% | viability, T/C (second compound 0.000949 µM, first compound 0.1 µM): 27.2% | viability, T/C (second compound 0.000949 µM, first compound 0.316 µM): 28.5% | viability, T/C (second compound 0.000949 µM, first compound 1 µM): 30.2% | viability, T/C (second compound 0.000949 µM, first compound 3.16 µM): 27.4% | viability, T/C (second compound 0.000949 µM, first compound 10 µM): 32.5% | viability, T/C (second compound 0.003 µM, first compound 0.0316 µM): 33.1% | viability, T/C (second compound 0.003 µM, first compound 0.1 µM): 26.5% | viability, T/C (second compound 0.003 µM, first compound 0.316 µM): 28.2% | viability, T/C (second compound 0.003 µM, first compound 1 µM): 32.6% | viability, T/C (second compound 0.003 µM, first compound 3.16 µM): 27.9% | viability, T/C (second compound 0.003 µM, first compound 10 µM): 30.2% | viability, T/C (second compound 0.00949 µM, first compound 0.0316 µM): 29% | viability, T/C (second compound 0.00949 µM, first compound 0.1 µM): 29.7% | viability, T/C (second compound 0.00949 µM, first compound 0.316 µM): 29.9% | viability, T/C (second compound 0.00949 µM, first compound 1 µM): 32.5% | viability, T/C (second compound 0.00949 µM, first compound 3.16 µM): 26.1% | viability, T/C (second compound 0.00949 µM, first compound 10 µM): 28.2% | viability, T/C (second compound 0.03 µM, first compound 0.0316 µM): 34.2% | viability, T/C (second compound 0.03 µM, first compound 0.1 µM): 29.4% | viability, T/C (second compound 0.03 µM, first compound 0.316 µM): 24% | viability, T/C (second compound 0.03 µM, first compound 1 µM): 27.7% | viability, T/C (second compound 0.03 µM, first compound 3.16 µM): 29.5% | viability, T/C (second compound 0.03 µM, first compound 10 µM): 27.7% | viability, T/C (second compound 0.0949 µM, first compound 0.0316 µM): 28.6% | viability, T/C (second compound 0.0949 µM, first compound 0.1 µM): 29.9% | viability, T/C (second compound 0.0949 µM, first compound 0.316 µM): 25.7% | viability, T/C (second compound 0.0949 µM, first compound 1 µM): 31.2% | viability, T/C (second compound 0.0949 µM, first compound 3.16 µM): 26% | viability, T/C (second compound 0.0949 µM, first compound 10 µM): 26.7% | viability, T/C (second compound 0.3 µM, first compound 0.0316 µM): 22.7% | viability, T/C (second compound 0.3 µM, first compound 0.1 µM): 27.9% | viability, T/C (second compound 0.3 µM, first compound 0.316 µM): 23.3% | viability, T/C (second compound 0.3 µM, first compound 1 µM): 21.9% | viability, T/C (second compound 0.3 µM, first compound 3.16 µM): 25.2% | viability, T/C (second compound 0.3 µM, first compound 10 µM): 24.4%
